According to patent US11578055B2, “Triazacyclododecansulfonamide (“TCD”)-based protein secretion inhibitors” (KEZAR LIFE SCIENCES, priority 2018, dated 2023):
Read-outs that look alike come from different tables or passages of the source.

Key:
[1] = tested on: PD1 signal sequence plus 10 amino acids fused to Gaussia Luciferase (PD1-ss+10aa/Gaussia Luciferase); test: Dox Induced PD1-ss-Gluc Assay; assay type: cell-based; conditions: 24 hr, read-out: 24 hr Dox Inducible PD1ssGluc 293FRT/TO: Mean IC50
Procedure, shortened: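 Compound dilutions in DMSO/media containing doxycycline were applied to a stable, inducible 293 T-REx line carrying the luciferase fusion, then incubated at 37 °C, 5% CO2. Where stereochemistry is not drawn, values relate to isomer mixtures.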

[2] = In Vitro Microsome Stability Assay (monkey); assay type: in vitro ADME
Procedure, shortened: (§1)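 The value reported is the percentage of parent left after 30 min, calculated from analyte/IS peak-area ratios relative to time zero by LC-MS/MS. Incubations ran at 37° C in 0.1 M potassium phosphate with NADPH and microsomes (stock 20 mg/mL), with compound added from a 0.25 mM DMSO stock. Acetonitrile containing IS stopped the reactions.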

[3] = In Vitro Microsome Stability Assay (mouse); assay type: in vitro ADME
Procedure, shortened: as §1

[4] = tested on: multiple myeloma cell line U266B1; test: U266 Cell Viability Assay; assay type: cell-based, human; conditions: Homo sapiens, U-266, 48 hr
Procedure, shortened: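 Viability was measured by CellTiter-Glo luminescence after 48 h compound exposure at 37° C, 5% CO2. The cells were U266B1 multiple myeloma cells grown in RPMI 1640 plus 10% FBS. Where stereochemistry is not shown, values apply to the stereoisomer mixture.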

[5] = tested on: full length IL-2 (amino acids 1-153) fused to Gaussia Luciferase; test: Dox Induced IL2-FL-Gluc Assay; assay type: cell-based; conditions: 24 hr, read-out: 24 hr Dox Inducible IL2FLGluc 293FRT/TO: Mean IC50
Procedure, shortened: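 Compounds in DMSO/media with doxycycline were added to cells plated the previous day and incubated at 37° C, 5% CO2. Cells: stable Flp-In 293 T-REx line, Dox-regulated expression of IL-2 (aa 1-153) fused at its C-terminus to Gaussia luciferase.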

[6] = In Vitro Microsome Stability Assay (human); assay type: in vitro ADME
Procedure, shortened: as §1

[7] = In Vitro Microsome Stability Assay (rat); assay type: in vitro ADME
Procedure, shortened: as §1

[8] = tested on: full length TNFα (amino acids 1-233) fused to Gaussia Luciferase; test: Dox Induced TNFα-FL-Gluc Assay; assay type: cell-based; conditions: 24 hr, read-out: 24 hr Dox Inducible TNFaFLGluc 293FRT/TO: Mean IC50
Procedure, shortened: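 Compounds diluted in DMSO/medium with doxycycline were incubated at 37° C, 5% CO2 with 293 T-REx cells stably carrying a Tet-regulated TNFα(1-233)-Gaussia luciferase construct. Data for structures drawn without stereochemistry refer to stereoisomer mixtures.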

[9] = tested on: multiple myeloma cell line NCl-H929; test: H929 Cell Viability Assay; assay type: cell-based, human; conditions: Homo sapiens, NCI-H929, 48 h
Procedure, shortened: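 Viability was determined by CellTiter-Glo luminescence after a 48 h, 37 °C exposure of NCI-H929 cells to serial compound dilutions in medium containing 10% FBS. Where stereochemistry is not shown, values refer to a mix of stereoisomers.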

[10] = monkey liver microsomes, 30 min w/ NADPH
[11] = mouse liver microsomes, 30 min w/ NADPH
[12] = human liver microsomes, 30 min w/ NADPH
[13] = rat liver microsomes, 30 min w/ NADPH
[14] = U266, read-out: 48 hr U266 Viability Celltiter-Glo: Mean EC50
[15] = H929, read-out: 48 hr H929 Viability Celltiter-Glo: Mean EC50

Structure (SMILES)	IC50 ([1]; Dox inducible, 293FRT/TO cells)	Liver Microsome Stability-% Left after 30 min w/ NADPH (%) Monkey [2, 10]	Liver Microsome Stability-% Left after 30 min w/ NADPH (%) Mouse [3, 11]	EC50 ([4]; U266, Celltiter-Glo)	IC50 ([5]; Dox inducible, 293FRT/TO cells)	Liver Microsome Stability-% Left after 30 min w/ NADPH (%) Human [6, 12]	Liver Microsome Stability-% Left after 30 min w/ NADPH (%) Rat [7, 13]	IC50 ([8]; Dox inducible, 293FRT/TO cells)	EC50 ([9]; H929, Celltiter-Glo)	IC50 ([1]; 293FRT/TO)	Liver Microsome Stability-% Left after 30 min w/ NADPH (%) Monkey ([2]; monkey, 30 min, NADPH)	Liver Microsome Stability-% Left after 30 min w/ NADPH (%) Mouse ([3]; mouse, 30 min, NADPH)	EC50 [4, 14]	IC50 ([5]; 293FRT/TO)	Liver Microsome Stability-% Left after 30 min w/ NADPH (%) Human ([6]; human, 30 min, NADPH)	Liver Microsome Stability-% Left after 30 min w/ NADPH (%) Rat ([7]; rat, 30 min, NADPH)	IC50 ([8]; 293FRT/TO)	EC50 [9, 15]
C[C@H]1CN(S(=O)(=O)c2cccc(N(C)C)c2)CCCN(CC2CCCCC2)CCCN(S(=O)(=O)N2CCc3cc(Cl)ccc3C2)C1 [A168, 3-{[(3S)-5-[(6-chloro-1,2,3,4-tetrahydroisoquinolin-2-yl)sulfonyl]-9-(cyclohexylmethyl)-3-methyl-1,5,9-triazacyclododecan-1-yl]sulfonyl}-N,N-dimethylaniline]	1490 nM	73%	42%	> 25000 nM	1140 nM	25.7%	42.1%	> 25000 nM	> 25000 nM									
C[C@H]1CN(S(=O)(=O)c2ccc(N(C)C)cc2)CCCN(CC2CCCCC2)CCCN(S(=O)(=O)N2CCN(c3ccc(F)cc3)CC2)C1 [A96, 4-{[(3S)-9-(cyclohexylmethyl)-5-{[4-(4-fluorophenyl)piperazin-1-yl]sulfonyl}-3-methyl-1,5,9-triazacyclododecan-1-yl]sulfonyl}-N,N-dimethylaniline]										122 nM	32.8%	37.6%	> 25000 nM	232 nM	40.5%	41.9%	1850 nM	5100 nM
C[C@H]1CN(S(=O)(=O)c2ccc(N(C)C)cc2)CCCN(CC2CCCCC2)CCCN(S(=O)(=O)N2CCN(c3ncccn3)CC2)C1 [A93, 4-{[(3S)-9-(cyclohexylmethyl)-3-methyl-5-{[4-(pyrimidin-2-yl)piperazin-1-yl]sulfonyl}-1,5,9-triazacyclododecan-1-yl]sulfonyl}-N,N-dimethylaniline]										670 nM	0.18%	0.4%	> 25000 nM	911 nM	0.84%	0.51%	> 25000 nM	10400 nM
COCCN1CCCN(S(=O)(=O)c2ccc(N(C)C)cc2)C[C@H](C)CN(S(=O)(=O)N2CCc3cc(Cl)ccc3C2)CCC1 [A140, 4-{[(3S)-5-[(6-chloro-1,2,3,4-tetrahydroisoquinolin-2-yl)sulfonyl]-9-(2-methoxyethyl)-3-methyl-1,5,9-triazacyclododecan-1-yl]sulfonyl}-N,N-dimethylaniline]	492 nM	1.56%	3.68%	> 25000 nM	808 nM	0.41%	0.56%	3010 nM	> 25000 nM									
C[C@@H]1CCN(S(=O)(=O)c2ccc(N(C)C)cc2)CCCN(CC2CCCCC2)CCCN1S(=O)(=O)N1CCc2cc(Cl)ccc2C1 [A148, 4-{[(4 R)-5-[(6-chloro-1,2,3,4-tetrahydroisoquinolin-2-yl)sulfonyl]-9-(cyclohexylmethyl)-4-methyl-1,5,9-triazacyclododecan-1-yl]sulfonyl}-N,N-dimethylaniline]	926 nM	0.67%	1.59%	> 25000 nM	1120 nM	0.52%	1.29%	> 25000 nM	> 25000 nM									

Further compounds by falling IC50 ([1]; Dox inducible, 293FRT/TO cells), results first:

IC50 ([1]; Dox inducible, 293FRT/TO cells)	Liver Microsome Stability-% Left after 30 min w/ NADPH (%) Monkey [2, 10]	Liver Microsome Stability-% Left after 30 min w/ NADPH (%) Mouse [3, 11]	EC50 ([4]; U266, Celltiter-Glo)	IC50 ([5]; Dox inducible, 293FRT/TO cells)	Liver Microsome Stability-% Left after 30 min w/ NADPH (%) Human [6, 12]	Liver Microsome Stability-% Left after 30 min w/ NADPH (%) Rat [7, 13]	IC50 ([8]; Dox inducible, 293FRT/TO cells)	EC50 ([9]; H929, Celltiter-Glo)	IC50 ([1]; 293FRT/TO)	Liver Microsome Stability-% Left after 30 min w/ NADPH (%) Monkey ([2]; monkey, 30 min, NADPH)	Liver Microsome Stability-% Left after 30 min w/ NADPH (%) Mouse ([3]; mouse, 30 min, NADPH)	EC50 [4, 14]	IC50 ([5]; 293FRT/TO)	Liver Microsome Stability-% Left after 30 min w/ NADPH (%) Human ([6]; human, 30 min, NADPH)	Liver Microsome Stability-% Left after 30 min w/ NADPH (%) Rat ([7]; rat, 30 min, NADPH)	IC50 ([8]; 293FRT/TO)	EC50 [9, 15]	Structure (SMILES)
81.5 nM	4.23%	22.5%	> 25000 nM	192 nM	34.7%	13.1%	1050 nM	3270 nM										C[C@H]1CN(S(=O)(=O)c2ccc(N(C)C)cc2)CCCN(CC2CC(F)(F)C2)CCCN(S(=O)(=O)N2CCc3cc(Cl)ccc3C2)C1 [A169, 4-{[(3S)-5-[(6-chloro-1,2,3,4-tetrahydroisoquinolin-2-yl)sulfonyl]-9-[(3,3-difluorocyclobutyl)methyl]-3-methyl-1,5,9-triazacyclododecan-1-yl]sulfonyl}-N,N-dimethylaniline]
38.2 nM	3.89%	16%	> 25000 nM	67 nM	11.8%	22.6%	741 nM	1450 nM										C[C@H]1CN(S(=O)(=O)c2ccc(N(C)C)cc2)CCCN(CC2=CCCC2)CCCN(S(=O)(=O)N2CCc3cc(Cl)ccc3C2)C1 [A142]
23.3 nM	27.3%	23.3%	> 25000 nM	77.4 nM	21.1%	32.2%	584 nM	858 nM										C[C@H]1CN(S(=O)(=O)c2ccc(N(C)C)cc2)CCCN(CC2CCCC2)CCCN(S(=O)(=O)N2CCc3cc(Cl)ccc3C2)C1 [A157, 4-{[(3S)-5-[(6-chloro-1,2,3,4-tetrahydroisoquinolin-2-yl)sulfonyl]-9-(cyclopentylmethyl)-3-methyl-1,5,9-triazacyclododecan-1-yl]sulfonyl}-N,N-dimethylaniline]
15.8 nM	28.4%	36.9%	> 25000 nM	53.3 nM	41.7%	44.4%	566 nM	1860 nM										COc1c(N2CCN(S(=O)(=O)N3CCCN(CC4CCCCC4)CCCN(S(=O)(=O)c4ccc(N(C)C)cc4)C[C@H](C)C3)CC2)ccc(F)c1F [A174, 4-{[(3S)-9-(cyclohexylmethyl)-5-{[4-(3,4-difluoro-2-methoxyphenyl)piperazin-1-yl]sulfonyl}-3-methyl-1,5,9-triazacyclododecan-1-yl]sulfonyl}-N,N-dimethylaniline]
11 nM	9.76%	27.9%	> 25000 nM	27.3 nM	31.9%	41.3%	309 nM	541 nM										C[C@H]1CN(S(=O)(=O)c2ccc(N(C)C)cc2)CCCN(CCC2CCCCC2)CCCN(S(=O)(=O)N2CCc3cc(Cl)ccc3C2)C1 [A134, 4-{[(3S)-5-[(6-chloro-1,2,3,4-tetrahydroisoquinolin-2-yl)sulfonyl]-9-(2-cyclohexylethyl)-3-methyl-1,5,9-triazacyclododecan-1-yl]sulfonyl}-N,N-dimethylaniline]
